Results taken from patent US10017481B2, “Conformationally constrained, fully synthetic macrocyclic compounds” (POLYPHOR AG, priority 2012, dated 2018).

Key:
Type in all cases: in vitro ADME
[1] = Plasma stability assay, CD-1 mouse plasma; conditions: for Plasma Stability 240 min mouse/(rat) [% remain.]: CD-1 mouse plasma, 10 μM, 37° C.; for half-life at 10 μM: both sexes, CD-1, mouse, plasma
Experimental: (§1) 5. Plasma and Metabolic Stability Assays Example compounds were dissolved in DMSO/H2O 90:10 to a final concentration of 10 mM for plasma stability determination and metabolic stability determination. The assays were conducted according to literature precedents (F. P. Guengerich, Analysis and Characterization of Enzymes; in: Principles and Methods of Toxicology, A. W. Hayes (Ed.) Raven Press: New York, 1989, 777-813; R. Singh et al., In vitro metabolism of a potent HIV-protease inhibitor (141W94) using rat, monkey and human liver S9, Rapid Commun. Mass Spectrom. 1996, 10, 1019-1026). Plasma Stability Assay Human plasma (Blutspendedienst SRK, Basel) and CD-1 mouse plasma (mixed gender pool >50 animals, Innovative Research, Calif., USA) are both sodium citrate stabilized. The assay is performed in triplicates at 10 μM compound concentration and 37° C. Samples are taken at 0, 15, 30, 60, 120 and 240 minutes and stopped by precipitation with 3 volumes of acetonitrile/formic acid 98:2 and shaking (2 minutes, 600 rpm) followed by filtration (−20 mm Hg). The filtrate is collected. The filtrate (100 μL) is evaporated and reconstituted in the suitable solvent (cf. Table 33) to be analyzed by HPLC/MS/MS. The resulting peak area counts are expressed in percent of the 0 value and used to determine the endpoint stability in % and the half life T in minutes. In order to monitor assay integrity the degradation of propantheline is assayed with every experimental set.

[2] = Metabolic stability assay, human liver microsomes; conditions: human microsomes, 10 μM, 37° C.; for half-life at 10 μM: both sexes, liver microsomes, 1 mg/ml protein, read-out: Metabolic Stability T ½ [min] hum
Experimental: (§2) 5. Plasma and Metabolic Stability Assays
(§3) Example compounds were dissolved in DMSO/H2O 90:10 to a final concentration of 10 mM for plasma stability determination and metabolic stability determination.
(§4) The assays were conducted according to literature precedents (F. P. Guengerich, Analysis and Characterization of Enzymes; in: Principles and Methods of Toxicology, A. W. Hayes (Ed.) Raven Press: New York, 1989, 777-813; R. Singh et al., In vitro metabolism of a potent HIV-protease inhibitor (141W94) using rat, monkey and human liver S9, Rapid Commun. Mass Spectrom. 1996, 10, 1019-1026).
(§5) Metabolic Stability Assay
(§6) Microsomes from a human 50 donor mixed gender pool and 1:1 mixtures of microsomes from CD-1 mouse single-gender pools are purchased from Celsis (Belgium). The enzymatic reaction is performed in a buffer containing an NADPH regeneration system and microsomes with the following end concentrations: 100 mM potassium phosphate buffer (all from Sigma), 1 mg/mL glucose-6-phosphate, 1 mg/mL β-nicotinamide adenine dinucleotide phosphate (NADP), 0.65 mg/mL magnesium chloride, 0.8 units/mL of glucose-6-phosphate dehydrogenase (prediluted with 5 mM citrate buffer), 10 μM compound and 1 mg/ml microsomal protein. Compounds are incubated at 37° C. in duplicates and samples are taken after 0, 5, 10, 20 and 60 minutes. After acetonitrile precipitation (3 volumes), shaking (2 minutes, 600 rpm) followed by centrifugation (10 minutes, 3200 g), the supernatant is dried reconstituted in the suitable solvent (cf. Table 33) and analyzed by HPLC/MS/MS. Metabolic turnover is expressed in % of the initial 0 minutes value and half life T½ (min) is calculated. Verapamil for human and propranolol for mouse are used as reference and are assayed with every experimental set.

[3] = Metabolic stability assay, CD-1 mouse microsomes; conditions: CD-1 mouse microsomes, 10 μM, 37° C.; for half-life at 10 μM: both sexes, 1 mg/ml protein, read-out: Metabolic Stability T ½ [min] mouse/(rat)
Experimental: as §2, §3, §4, §5, §6

[4] = Plasma stability assay, human plasma; conditions: for Plasma Stability 240 min hum [% remain.]: human plasma, 10 μM, 37° C.; for half-life at 10 μM: human, plasma
Experimental: as §1

| Plasma Stability 240 min mouse/(rat) [% remain.] [1] | half-life at 10 μM [1] | half-life at 10 μM [2] | Metabolic Stability 60 min hum [% remain.] [2] | Metabolic Stability 60 min mouse/(rat) [% remain.] [3] | half-life at 10 μM [3] | Plasma Stability 240 min hum [% remain.] [4] | half-life at 10 μM [4] | SMILES |
| --- | --- | --- | --- | --- | --- | --- | --- | --- |
| 86 % remain. | > 4 h | > 60 min | 100 % remain. | 92 % remain. | > 60 min | – | – | COc1ccc2c(c1)-c1cccc(c1)C(=O)N(C)[C@H](C(=O)NCC(F)(F)F)CCC(=O)N[C@H](C)CO2 [Ex. 53, (10R,15S)-4-methoxy-10,16-dimethyl-12,17-dioxo-N-(2,2,2-trifluoroethyl)-8-oxa-11,16-diazatricyclo[16.3.1.0^2,7]docosa-1(22),2,4,6,18,20-hexaene-15-carboxamide] |
| 80 % remain. | > 4 h | > 60 min | 97 % remain. | 98 % remain. | > 60 min | – | – | COc1ccc2c(c1)-c1cccc(c1)C(=O)N(C)[C@H](C(=O)NCCO)CCC(=O)N[C@H](C)CO2 [Ex. 55, (10R,15S)-N-(2-hydroxyethyl)-4-methoxy-10,16-dimethyl-12,17-dioxo-8-oxa-11,16-diazatricyclo[16.3.1.0^2,7]docosa-1(22),2,4,6,18,20-hexaene-15-carboxamide] |
| – | – | > 60 min | 87 % remain. | 70 % remain. | > 60 min | 95 % remain. | > 4 h | COc1ccc2c(c1)-c1cccc(c1)C(=O)N(C)[C@H](C(=O)N[C@@H](C)c1ccccc1)CCC(=O)N[C@H](C)CO2 [Ex. 58, (10R,15S)-4-methoxy-10,16-dimethyl-12,17-dioxo-N-[(1S)-1-phenylethyl]-8-oxa-11,16-diazatricyclo[16.3.1.0^2,7]docosa-1(22),2,4,6,18,20-hexaene-15-carboxamide] |
| – | – | 8 min | 0 % remain. | 19 % remain. | 25 min | 97 % remain. | > 4 h | COc1ccc2c(c1)-c1cccc(c1)C(=O)N(C)[C@H](C(=O)NCc1cccc3ccccc13)CCC(=O)N[C@H](C)CO2 [Ex. 60, (10R,15S)-4-methoxy-10,16-dimethyl-N-(1-naphthylmethyl)-12,17-dioxo-8-oxa-11,16-diazatricyclo[16.3.1.0^2,7]docosa-1(22),2,4,6,18,20-hexaene-15-carboxamide] |
| – | – | 2 min | 0 % remain. | 0 % remain. | 1 min | 89 % remain. | > 4 h | C[C@H]1COc2cccc(c2)-c2cccc(c2)C(=O)N(C)[C@H](C(=O)NCCc2ccccc2)CCC(=O)N1 [Ex. 73, (9S,14S)-9,15-dimethyl-11,16-dioxo-N-phenethyl-7-oxa-10,15-diazatricyclo [15.3.1.1^2,6]docosa-1(21),2(22),3,5,17,19-hexaene-14-carboxamide] |
| – | – | 16 min | 4 % remain. | 9 % remain. | 15 min | 88 % remain. | > 4 h | C[C@H](NC(=O)[C@@H]1CCC(=O)N[C@@H](C)COc2cccc(c2)-c2cccc(c2)C(=O)N1C)c1ccccc1 [Ex. 76, (9S,14S)-9,15-dimethyl-11,16-dioxo-N-[(1S)-1-phenylethyl]-7-oxa-10,15-diazatricyclo[15.3.1.1^2,6]docosa-1(21),2(22),3,5,17,19-hexaene-14-carboxamide] |
| 60 % remain. | > 4 h | – | – | 71 % remain. | > 60 min | – | – | C[C@H]1COc2cccc(c2)-c2cccc(c2)C(=O)N(C)[C@H](C(=O)N2CCC2)CCC(=O)N1 [Ex. 86, (9S,14S)-14-(1-azetanylcarbonyl)-9,15-dimethyl-7-oxa-10,15-diazatricyclo [15.3.1.1^2,6]docosa-1(21),2(22),3,5,17,19-hexaene-11,16-dione] |
